The nature of data set [1]: Preparation of solid freeze-dried HPCD complexes: degree of incorporation. As to conditions: for Amount of Drug in Dry Complex: freeze-dried complex from 50% w/w HPCD (ASDS 5.1). It is filed as physicochemical. The method, then: An excess of E2-CDS was added and the solution then was purged with helium. The resulting suspension was then sonicated for 30 minutes, filtered through a glass filter (ASTM 10-15M, Pyrex No. 36060) and freeze-dried overnight. Best results were obtained by hard-freezing the aqueous solution of the E2-CDS/HPCD complex for at least 10 hours before lyophilization. The degree of complex formation was determined by dissolving a small amount of the dry complex in methanol and then analyzing by high pressure liquid chromatography (HPLC).
An excess of E2-CDS or other CDS was added to a 50% w/w solution of HPCD. The suspension was sonicated for 30 minutes, filtered through 0.45 µm PVDF membranes and freeze-dried. The degree of incorporation was determined either spectrophotometrically or by HPLC. In some cases, the effect of solubilizing agents on the degree of incorporation was examined. This involved adding small amounts of polyoxyethylene 20 cetyl ether (Brij), polyoxyethylene sorbitan monooleate (Tween 80) or ethanol to the aqueous solution prior to lyophilization.
The retention time was 5.2 min. Other compounds were assayed spectrophotometrically.
The solution was degassed and the suspension was sonicated for 30 minutes, after which it was filtered and the filtrate was lyophilized. The dried filtrate contained 65.6 mg testosterone propionate or 29.6 mg T-CDS1 per gram of cyclodextrin complex. Compounds were analyzed for decomposition by thin-layer chromatography and ultraviolet absorption.

Data set [2] in a line: physchem. As to conditions: 50% w/w aqueous hpcd. The protocol:
An excess of E2-CDS was sonicated with an aqueous solution of the appropriate solubilizing agent for 30 minutes. The suspension was then centrifuged, filtered through 0.45 µm polyvinylidene difluoride (Millex-HV4, Millipore®) membranes and analyzed by HPLC. […] An estimation of the bulk equilibrium constant was obtained by correlating the millimolarity of E2-CDS solubilized and the millimolarity of the cyclodextrin added. This latter value was calculated using the average molecular weight of the isomeric mixture determined by mass spectroscopy. The solubilizing effect of a 50% w/w solution of HPCD was also examined for a series of steroids and dihydropyridines (CDS). These studies were carried out in a similar manner to those previously described.
For the CDS, the wavelength monitored was 360 nm while for estrogen 220 nm was used.
Separation was achieved on an Analytical Sciences, Inc. (ASI) 10 µm particle size, C18 reversed phase 30 cm x 3.9 mm i.d. analytical column. The flow rate was 1 mL/min, the compounds were detected at 360 nm and in all determinations the temperature was ambient. […] For the GABA-CDS1, a mobile phase consisting of 50:1:1:48 of the same components was required. […] Other compounds were assayed spectrophotometrically.

Data set [3] is described as follows: Observation of toxicity on injection (Experiments 1-3). It is filed as in vivo, Male Sprague-Dawley rats. Particulars: rats. The method, then: On day 15 after orchidectomy, rats were ether-anesthetized and the right external jugular vein exposed. Animals were then administered one of the following: testosterone-chemical delivery system (T-CDS1 or T-CDS2), testosterone (Steraloids Inc., Wilton, NH) or the vehicle, dimethyl sulfoxide (DMSO; Fisher Scientific, Fair Lawn, NJ). The testosterone-chemical delivery systems were given at doses equimolar to testosterone (25 mg/kg) so that T-CDS1 was administered at 35.5 mg/kg and rats received T-CDS2 at a dose of 45.1 mg/kg. DMSO was injected at a volume of 1 mL/kg. All compounds were administered by infusion over a 2 minute period. One milliliter of blood was withdrawn from the external jugular vein immediately before giving the drugs (1000 hours) and blood was sampled by cardiac puncture after 6, 12, 24 hours and on days 4 and 7. The sera were separated by centrifugation at 500 x g for 20 min at 4°C and stored at -20°C.
Two weeks after orchidectomy, rats were administered either T-CDS1, testosterone propionate (TP; Steraloids Inc.) or DMSO by means of intravenous infusion into the right external jugular vein in an effort to more effectively enhance the brain delivery of testosterone. It has been shown that slow infusion improves brain delivery of drugs attached to the chemical-delivery systems. […]

In brackets after ≈: the same amount, converted by molar mass.

As a reminder, the solubility is the concentration that dissolves in the medium under given conditions. Lower therefore signals a poorly soluble substance. Take `CN1C=CCC(C(=O)NCCc2ccc(OC(=O)C(C)(C)C)c(OC(=O)C(C)(C)C)c2)=C1` [DA-CDS, 1-methyl-3-{{N-{β-[3,4-bis-(pivalyloxy)phenyl]ethyl}-carbamoyl}}-1,4-dihydropyridine]: in data set [1], the “Amount of Drug in Dry Complex” value is recorded as 27 mg/g. This compound also registered a solubility in data set [2] of 16 mg/mL (≈ 36.2 mM).

`CN1C=CCC(C(=O)O[C@H]2CC[C@H]3[C@@H]4CCC5=CC(=O)CC[C@]5(C)[C@H]4CC[C@]23C)=C1` [T-CDS1, 17β-[(1,4-dihydro-1-methyl-3-pyridinylcarbonyl)oxy]androst-4-en-3-one]: the toxicity on administration entry was “respiratory distress and/or death” in data set [3] (DMSO vehicle, i.v. injection or infusion) and “No respiratory distress or animal loss” in data set [3] (complexed with HPCD, tail vein injection). In addition, the “Amount of Drug in Dry Complex” value in data set [1] was determined as 29.0 mg/g. In data set [1] (lyophilized from 50% w/v aqueous HPCD, degree of substitution 5.1), the “drug content of dried filtrate” value is 29.6 mg per gram of cyclodextrin co. Further, in data set [2], the solubility is 17.1 mg/mL (≈ 41.8 mM).

Take `CCC(=O)O[C@H]1CC[C@H]2[C@@H]3CCC4=CC(=O)CC[C@]4(C)[C@H]3CC[C@]12C` [Testosterone 17-Propionate]: in data set [1], the “Amount of Drug in Dry Complex” value stood at 65.6 mg/g. In addition, in data set [2], the concentration in solution (solubility) was 38 mg/mL (≈ 110 mM).

The values above are taken from patent publication EP0335545B2, “Pharmaceutical formulations for parenteral use” (UNIVERSITY OF FLORIDA, priority 1988, dated 1989).
